The values below come from ChEMBL document CHEMBL1201862, “PubChem BioAssay data set” (2004).

What is called IC50 is the concentration that inhibits the measured activity by half. As a reminder, the AC50 is the concentration at which the activity in the assay is half-maximal. By EC50 is commonly meant the midpoint of the concentration-response curve. What is called CC50 is the concentration giving 50% cytotoxicity.

The source made the active and inactive calls.

Test [1] addresses T1, Heat shock 70 kDa protein 1A (Homo sapiens, UniProt P0DMV8). Kind of test: small molecules displacing fluorescent ligand from Hsp70 – biochemical, fluorescence polarization, primary screen (AID 583).
For test [2], the target named is T1, Heat shock 70 kDa protein 1A. Kind of test: small-molecule inhibition of Hsp70 – biochemical, TR-FRET (AID 786). (In general: Time-resolved FRET reads energy transfer from a long-lived donor to a nearby acceptor.)
Test [3] in a line: decrease of insulin promoter-GFP reporter – imaging, high-content screening, mouse beta cells (AID 1628). The test is classed as functional. The settings on record: MIN6.
Test [4] can be described thus: MIN6 cell viability loss – mouse insulinoma, cytotoxicity control, dose response (AID 2122).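 Further: confirmatory high-throughput counterscreen run to flag cytotoxic compounds.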 The test is classed as functional.
The subject of the next test is INS1. As to the kind of experiment: INS-1E survival protection against cytokine death – cell-based, luminescence, retest, dose response (AID 449756).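 Further: cell death triggered by IL-1 beta plus TNF-alpha plus IFN-gamma mixture; protective hits raise ATP signal compared with cytokine alone wells.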 The test is classed as functional. The settings on record: Rattus norvegicus.
Another test addresses Protein Rev (Human immunodeficiency virus type 1 group M subtype B (isolate WMJ22)(HIV-1), UniProt P05866). Kind of test: inhibitors of Rev protein–RRE RNA complex – biochemical, protein-RNA interaction, dose response (AID 842). Also on record: species or system Human immunodeficiency virus 1.
The target of test [5] is FAD-linked sulfhydryl oxidase ALR (Homo sapiens, UniProt P55789). Kind of test: ALR-catalysed DTT oxidation blockers – biochemical, H2O2 detection, luminescence, cherry-pick, dose response (AID 493248).
Chain of FAD-linked sulfhydryl oxidase ALR (P55789 whole entry): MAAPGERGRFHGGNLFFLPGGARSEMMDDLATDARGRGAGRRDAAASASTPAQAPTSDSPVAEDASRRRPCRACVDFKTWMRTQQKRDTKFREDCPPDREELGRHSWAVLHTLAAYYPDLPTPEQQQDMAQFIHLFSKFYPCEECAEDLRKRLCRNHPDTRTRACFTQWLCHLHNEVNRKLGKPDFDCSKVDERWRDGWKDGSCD
Test [6] has as its target Eukaryotic translation initiation factor 4H (Homo sapiens, UniProt Q15056). As to the kind of experiment: eIF4H binding inhibition – biochemical, uHTS, fluorescence polarization, translation initiation inhibitor project, primary screen (AID 2012). A general note: Polarisation of emitted light reports the rotation of a fluorescent probe.
In test [7] the target is Polyadenylate-binding protein 1 (Homo sapiens, UniProt P11940). As to the kind of experiment: blockers of PABP interaction with poly(A) – biochemical, fluorescence polarization, […] (AID 2014).
Chain of Polyadenylate-binding protein 1 (P11940 whole entry): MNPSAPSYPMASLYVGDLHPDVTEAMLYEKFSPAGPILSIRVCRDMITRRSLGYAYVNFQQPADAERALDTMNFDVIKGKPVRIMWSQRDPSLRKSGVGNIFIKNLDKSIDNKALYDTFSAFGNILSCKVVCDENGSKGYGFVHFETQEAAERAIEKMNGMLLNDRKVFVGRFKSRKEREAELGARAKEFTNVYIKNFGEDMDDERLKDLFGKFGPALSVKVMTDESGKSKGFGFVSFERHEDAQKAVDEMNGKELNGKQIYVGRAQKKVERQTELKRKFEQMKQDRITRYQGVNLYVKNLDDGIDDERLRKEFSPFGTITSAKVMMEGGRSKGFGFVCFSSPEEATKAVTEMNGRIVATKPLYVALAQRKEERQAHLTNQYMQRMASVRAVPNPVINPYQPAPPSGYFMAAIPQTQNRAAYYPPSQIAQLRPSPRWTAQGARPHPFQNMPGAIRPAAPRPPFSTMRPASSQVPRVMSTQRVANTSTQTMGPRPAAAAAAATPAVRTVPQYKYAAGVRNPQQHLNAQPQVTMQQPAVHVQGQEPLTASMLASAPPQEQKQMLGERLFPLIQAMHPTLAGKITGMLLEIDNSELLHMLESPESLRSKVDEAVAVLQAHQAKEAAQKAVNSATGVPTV
Test [8] concerns the target Melanin-concentrating hormone receptor 1 (Homo sapiens, UniProt Q99705). As to the kind of experiment: Fluorescence-based counterscreen for antagonists of the G-protein coupled receptor 7 (GPR7): cell-based high throughput dose response assay to identify antagonists of the melanin-concentrating hormone receptor 1 (MCHR1). Format: functional. (In general: A counterscreen serves to expose hits that act by an unwanted route or on another target.)

The target of test [9] is T2, Neuropeptides B/W receptor type 1 (Homo sapiens, UniProt P48145).
T2 sequence (P48145 whole entry): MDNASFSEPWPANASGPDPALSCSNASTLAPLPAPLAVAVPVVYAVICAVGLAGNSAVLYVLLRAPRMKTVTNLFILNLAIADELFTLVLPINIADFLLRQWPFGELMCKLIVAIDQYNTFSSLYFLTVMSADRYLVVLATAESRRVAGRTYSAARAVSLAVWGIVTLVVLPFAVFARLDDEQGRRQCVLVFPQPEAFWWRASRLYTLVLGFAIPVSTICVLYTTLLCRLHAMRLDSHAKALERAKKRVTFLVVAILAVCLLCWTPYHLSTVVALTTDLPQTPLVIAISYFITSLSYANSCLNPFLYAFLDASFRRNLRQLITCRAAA
Kind of test: Fluorescence-based dose response cell-based high throughput screening assay to identify antagonists of the G-protein coupled receptor 7 (GPR7). [Related pubchem assays: 1952 (Screening assay (GPR7 antagonists).), 1880 (Summary AID.)]. The test is classed as functional.

Test [10] can be described thus: Luminescence Cell-Based Dose Confirmation HTS to Identify Inhibitors of Platelet Dense Granule Release. [Related pubchem assays: 1663 (Primary HTS), 1678 (Summary of Project)]. Format: functional.
Test [11] can be described thus: cells. The test is classed as functional, cell-based.
A short description of test [12]: luciferase reporter signal reduction – luminescence, H4-C neuroglioblastoma cells, dose response (AID 2458).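 Further: H4 neuroglioblastoma cells stably carrying a luciferase reporter gene fusion.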 The test is classed as functional, cell-based.
A short description of test [13]: alpha-synuclein stem-loop luciferase translation blockers – H4 neuroglioma cells, luminescence, confirmation (AID 1988). The test is classed as functional, cell-based.
Test [14] is described as follows: alpha-synuclein stem-loop translation blockers – luminescence, H4 neuroglioblastoma cells, dose confirmation, confirmation (AID 2454).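 Further: H4 neuroglioblastoma cells carrying an alpha-synuclein 5'UTR luciferase reporter; potency for inhibition of the luciferase signal.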 Format: functional, cell-based.
Test [15] deals with Luciferin 4-monooxygenase (Photinus pyralis, UniProt P08659). Kind of test: inhibition of purified Photinus pyralis luciferase – biochemical, luminescence, dose response (AID 1891).
Chain of Luciferin 4-monooxygenase (P08659 whole entry): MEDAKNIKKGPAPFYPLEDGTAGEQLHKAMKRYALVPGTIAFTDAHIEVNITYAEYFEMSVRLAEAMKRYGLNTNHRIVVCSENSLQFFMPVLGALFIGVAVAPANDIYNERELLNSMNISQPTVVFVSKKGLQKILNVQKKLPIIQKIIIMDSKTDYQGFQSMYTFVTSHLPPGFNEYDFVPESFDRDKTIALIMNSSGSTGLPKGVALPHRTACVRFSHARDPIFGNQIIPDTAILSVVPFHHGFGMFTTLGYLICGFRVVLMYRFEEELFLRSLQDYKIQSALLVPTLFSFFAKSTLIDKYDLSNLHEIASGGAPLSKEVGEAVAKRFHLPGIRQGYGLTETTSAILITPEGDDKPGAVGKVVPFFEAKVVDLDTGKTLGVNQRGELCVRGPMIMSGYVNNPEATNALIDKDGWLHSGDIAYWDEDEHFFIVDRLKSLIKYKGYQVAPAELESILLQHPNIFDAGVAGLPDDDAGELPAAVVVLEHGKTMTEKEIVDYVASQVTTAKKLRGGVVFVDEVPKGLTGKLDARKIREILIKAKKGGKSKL
The nature of test [16]: luciferase reporter signal suppression in cells – H4 neuroglioma cells, luminescence, dose response (AID 1990). The test is classed as functional, cell-based.
Test [17] deals with T3, Mannose-6-phosphate isomerase (Homo sapiens, UniProt P34949).
T3 sequence (P34949 whole entry): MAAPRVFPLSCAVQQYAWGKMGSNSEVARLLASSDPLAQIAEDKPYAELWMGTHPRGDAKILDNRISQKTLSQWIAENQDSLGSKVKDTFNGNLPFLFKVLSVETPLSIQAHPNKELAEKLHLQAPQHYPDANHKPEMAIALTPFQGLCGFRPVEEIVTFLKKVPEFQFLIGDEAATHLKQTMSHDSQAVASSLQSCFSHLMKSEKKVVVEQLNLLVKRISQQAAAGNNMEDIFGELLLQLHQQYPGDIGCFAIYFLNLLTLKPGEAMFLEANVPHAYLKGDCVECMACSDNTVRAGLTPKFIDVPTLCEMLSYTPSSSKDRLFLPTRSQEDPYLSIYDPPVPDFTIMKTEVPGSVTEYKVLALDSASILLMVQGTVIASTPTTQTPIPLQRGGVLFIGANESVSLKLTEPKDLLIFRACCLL
As to the kind of experiment: MPI enzyme activity inhibition – biochemical, fluorescence intensity, coupled assay, primary screen (AID 1209).

The subject of the next test is H9c2. Kind of test: cells. Format: functional, cell-based. As to conditions: Rattus norvegicus, H9c2, Myocardium.
Test [18] deals with Lysosomal acid glucosylceramidase (Homo sapiens, UniProt P04062). As to the kind of experiment: Dose response cell-based high throughput screening assay to identify enhancers of beta-glucosidase activity. [Related pubchem assays: 784 ]. Format: functional.
Chain of Lysosomal acid glucosylceramidase (P04062 whole entry): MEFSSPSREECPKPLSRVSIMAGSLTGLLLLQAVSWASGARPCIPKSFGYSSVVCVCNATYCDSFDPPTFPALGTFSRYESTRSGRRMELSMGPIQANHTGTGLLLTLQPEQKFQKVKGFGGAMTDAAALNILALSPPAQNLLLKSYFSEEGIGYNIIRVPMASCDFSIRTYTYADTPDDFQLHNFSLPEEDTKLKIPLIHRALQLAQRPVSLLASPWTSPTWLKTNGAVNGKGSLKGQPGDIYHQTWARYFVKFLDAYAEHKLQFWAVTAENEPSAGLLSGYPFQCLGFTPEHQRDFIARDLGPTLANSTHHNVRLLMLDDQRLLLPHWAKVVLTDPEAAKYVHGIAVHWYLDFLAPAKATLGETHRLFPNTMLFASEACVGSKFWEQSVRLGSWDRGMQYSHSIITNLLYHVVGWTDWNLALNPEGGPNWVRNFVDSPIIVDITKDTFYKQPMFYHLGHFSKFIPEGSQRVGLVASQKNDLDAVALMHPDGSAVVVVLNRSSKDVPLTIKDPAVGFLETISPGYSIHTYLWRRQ
Test [19] addresses T4, Estrogen receptor beta (Homo sapiens, UniProt Q92731).
Test [20] deals with T4, Estrogen receptor beta. As to the kind of experiment: blockers of SRC-3 recruitment to ERβ – biochemical, ELISA, streptavidin-HRP readout, orthogonal assay, confirmation (AID 1060).
In another test the test system is Vero. As to the kind of experiment: cells. The settings on record: Chlorocebus sabaeus. The test is classed as functional, cell-based.
Test [21] is described as follows: cells.
A short description of test [22]: viability of uninfected HEp-2 cells – cell-based, HTS, cytotoxicity control for RSV inhibitor project, dose response (AID 2410). Format: functional. The settings on record: human respiratory syncytial virus.

T1 sequence (P0DMV8 whole entry): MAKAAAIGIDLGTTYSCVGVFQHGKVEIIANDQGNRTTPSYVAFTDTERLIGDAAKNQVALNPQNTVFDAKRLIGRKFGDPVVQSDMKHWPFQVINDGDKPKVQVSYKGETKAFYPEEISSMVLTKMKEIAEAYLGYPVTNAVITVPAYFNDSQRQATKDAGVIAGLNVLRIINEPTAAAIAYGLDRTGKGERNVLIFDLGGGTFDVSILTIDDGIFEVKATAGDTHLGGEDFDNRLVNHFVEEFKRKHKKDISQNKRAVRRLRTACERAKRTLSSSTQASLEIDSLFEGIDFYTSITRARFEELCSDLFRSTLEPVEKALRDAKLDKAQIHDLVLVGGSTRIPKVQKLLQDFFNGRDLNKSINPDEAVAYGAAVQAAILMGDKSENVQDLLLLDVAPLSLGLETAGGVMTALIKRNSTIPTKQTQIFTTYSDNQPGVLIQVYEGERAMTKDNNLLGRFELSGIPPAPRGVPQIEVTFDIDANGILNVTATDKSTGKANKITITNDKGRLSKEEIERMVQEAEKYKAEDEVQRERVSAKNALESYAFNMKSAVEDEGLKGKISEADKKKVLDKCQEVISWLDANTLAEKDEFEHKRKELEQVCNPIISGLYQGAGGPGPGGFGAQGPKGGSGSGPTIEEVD
T4 sequence (Q92731 whole entry): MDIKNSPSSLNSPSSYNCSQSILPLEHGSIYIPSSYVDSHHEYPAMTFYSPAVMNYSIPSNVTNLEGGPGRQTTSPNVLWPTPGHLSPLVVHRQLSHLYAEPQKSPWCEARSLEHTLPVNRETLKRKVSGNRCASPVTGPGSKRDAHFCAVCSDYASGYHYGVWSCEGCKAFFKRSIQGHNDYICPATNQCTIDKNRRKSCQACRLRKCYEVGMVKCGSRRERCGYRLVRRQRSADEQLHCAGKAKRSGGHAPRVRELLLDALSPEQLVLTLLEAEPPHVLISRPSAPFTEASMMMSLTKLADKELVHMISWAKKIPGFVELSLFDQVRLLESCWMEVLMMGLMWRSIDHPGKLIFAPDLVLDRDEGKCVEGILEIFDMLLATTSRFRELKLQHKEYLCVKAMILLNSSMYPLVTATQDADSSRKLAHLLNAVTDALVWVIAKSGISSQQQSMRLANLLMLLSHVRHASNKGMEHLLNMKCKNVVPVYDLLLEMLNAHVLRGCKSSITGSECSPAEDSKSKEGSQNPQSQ
Chain of Melanin-concentrating hormone receptor 1 (Q99705 whole entry): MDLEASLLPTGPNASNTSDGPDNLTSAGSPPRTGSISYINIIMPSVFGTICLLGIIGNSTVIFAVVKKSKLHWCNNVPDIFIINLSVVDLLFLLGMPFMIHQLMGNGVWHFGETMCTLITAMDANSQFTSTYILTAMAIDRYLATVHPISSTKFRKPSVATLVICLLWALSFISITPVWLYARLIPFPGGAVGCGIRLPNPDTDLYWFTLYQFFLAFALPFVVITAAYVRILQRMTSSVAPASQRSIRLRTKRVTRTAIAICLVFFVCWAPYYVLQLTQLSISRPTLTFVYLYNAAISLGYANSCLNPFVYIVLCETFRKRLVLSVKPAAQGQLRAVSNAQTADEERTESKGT
Chain of Protein Rev (P05866 whole entry): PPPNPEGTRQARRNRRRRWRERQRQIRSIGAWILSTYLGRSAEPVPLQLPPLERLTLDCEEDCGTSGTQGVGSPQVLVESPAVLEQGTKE

As to `CCn1nccc1C(=O)Nc1ccc(Cl)cn1`, the IC50 in [1] and in [2] was > 100 µM (not active) throughout.

For the molecule `C[n+]1c2n(c3ccccc31)N=C(c1ccc(Cl)cc1)CS2`, the IC50 was 2.51 µM (active) in test [3], 1.49 µM (active) in test [4] and > 79.4 µM (not active) at Protein Rev. For the same molecule, the results for the AC50 (in the test on INS1; in test [5]) were 4.54 µM (active) and 0.425 µM (active), respectively.

On to `O=C(CN1CCN(S(=O)(=O)/C=C/c2ccccc2)CC1)NC(=O)NCc1ccco1`, for which the IC50 in test [6] is 13.1 µM (active); in test [7] it was > 100 µM (inactive).

On to `O=C(c1cnccn1)N(Cc1cccs1)C1(C(=O)NC2CCCC2)CCCCC1`, for which the IC50 in test [8] and in [9] was > 43.8 µM (not active) in each case.

With `CCN(CC)c1ccc(C2=NNC(=O)CC2C)cc1[N+](=O)[O-]` (stereo not given), the concentration for a half-maximal effect (EC50) in test [10] is 0.504 µM (active); in “cells [11]”, 0.194 µM (active); in [12], 0.05 µM (active); in test [13], < 0.1 µM (active); in [14], 0.123 µM (active); in test [15], > 112 µM (not active). Also, in test [16], the EC50 is < 0.1 µM (active).

For the molecule `CCOC(=O)CNC(=O)CNC(=O)Cn1ccc2ccccc2c1=O`, the IC50 in [1] and in [2] was > 100 µM (not active) throughout.

As for `COc1ccccc1N1C(=O)CC(Sc2n[nH]c(-c3cccc(C)c3)n2)C1=O` (stereo not given), the IC50 in test [17] was 48.1 µM (active).

As to `CN(CC1COc2ccccc2O1)c1nc(-c2cccnc2)nc2ccccc12` (stereo not given), in the test with H9c2, the IC50 was 24.4 µM (active). Further, the EC50 in [18] is 2.65 µM (active).

For `CCC(=O)N1c2ccc(S(=O)(=O)NCc3ccco3)cc2CC1C` (stereo not given), the IC50 in test [6] was 10.2 µM (active); in test [7], 24.1 µM (active).

Take `CC12CCCCC1(O)[N+](=O)C1=C(CCCC1)N2[O-]` (stereo not given): the IC50 at Estrogen receptor beta [19] is 10.9 µM (active); against Estrogen receptor beta [20], 2.85 µM (not active).

For `Nc1ccc(C(=O)OCc2nc3cc4ccccc4cc3[nH]2)cc1`, the IC50 in the test on Vero is 3.67 µM (active); in the test “cells [21]”, 23.6 µM (active). Also, the CC50 in test [22] was 36.6 µM (active).
